Results on 8 substances are retold here after US7049289B1, “Labelled glutamine and lysine analogues” (Amersham PLC, priority 1998, dated 2006).

In series [1] the target is T1, fibrin (in vitro human plasma clot) (Homo sapiens, UniProt P02671+P02675+P02679).
T1 construct: about 400 μl of human plasma containing the radiolabelled substrate; from tissue; host or cells: human plasma, clotted in vitro with added thrombin and calcium chloride
T1 sequence (P02671 20-644 isoform P02671-2 limits assumed): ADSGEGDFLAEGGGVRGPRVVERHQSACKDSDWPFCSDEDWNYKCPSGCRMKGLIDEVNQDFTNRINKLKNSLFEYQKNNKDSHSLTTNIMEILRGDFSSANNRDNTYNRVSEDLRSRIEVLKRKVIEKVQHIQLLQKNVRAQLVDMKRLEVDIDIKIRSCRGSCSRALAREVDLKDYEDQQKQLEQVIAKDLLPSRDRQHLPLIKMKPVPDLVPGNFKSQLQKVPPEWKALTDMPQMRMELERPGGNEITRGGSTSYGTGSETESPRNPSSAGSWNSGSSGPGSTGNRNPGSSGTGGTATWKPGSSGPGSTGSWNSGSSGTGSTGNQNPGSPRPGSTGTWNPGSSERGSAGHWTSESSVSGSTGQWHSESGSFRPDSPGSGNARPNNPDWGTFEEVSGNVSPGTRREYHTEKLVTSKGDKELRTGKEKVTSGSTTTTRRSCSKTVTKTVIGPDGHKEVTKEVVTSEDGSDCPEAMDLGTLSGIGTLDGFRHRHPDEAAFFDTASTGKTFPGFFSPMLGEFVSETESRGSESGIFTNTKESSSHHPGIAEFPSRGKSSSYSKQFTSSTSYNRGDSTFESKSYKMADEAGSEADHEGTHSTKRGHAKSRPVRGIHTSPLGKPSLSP
T1 sequence (P02675 45-491 limits assumed): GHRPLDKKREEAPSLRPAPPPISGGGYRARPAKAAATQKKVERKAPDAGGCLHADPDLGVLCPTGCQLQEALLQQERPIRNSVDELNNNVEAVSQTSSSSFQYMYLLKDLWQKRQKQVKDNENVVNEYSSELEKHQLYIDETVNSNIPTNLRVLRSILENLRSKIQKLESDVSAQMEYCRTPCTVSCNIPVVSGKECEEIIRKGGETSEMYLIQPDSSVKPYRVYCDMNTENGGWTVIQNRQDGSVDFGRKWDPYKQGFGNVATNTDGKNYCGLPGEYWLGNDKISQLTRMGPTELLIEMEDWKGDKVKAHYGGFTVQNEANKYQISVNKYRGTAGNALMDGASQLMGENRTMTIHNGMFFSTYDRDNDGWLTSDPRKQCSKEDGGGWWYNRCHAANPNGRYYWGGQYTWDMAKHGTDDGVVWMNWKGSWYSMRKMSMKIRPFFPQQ
T1 sequence (P02679 27-437 isoform P02679-2 limits assumed): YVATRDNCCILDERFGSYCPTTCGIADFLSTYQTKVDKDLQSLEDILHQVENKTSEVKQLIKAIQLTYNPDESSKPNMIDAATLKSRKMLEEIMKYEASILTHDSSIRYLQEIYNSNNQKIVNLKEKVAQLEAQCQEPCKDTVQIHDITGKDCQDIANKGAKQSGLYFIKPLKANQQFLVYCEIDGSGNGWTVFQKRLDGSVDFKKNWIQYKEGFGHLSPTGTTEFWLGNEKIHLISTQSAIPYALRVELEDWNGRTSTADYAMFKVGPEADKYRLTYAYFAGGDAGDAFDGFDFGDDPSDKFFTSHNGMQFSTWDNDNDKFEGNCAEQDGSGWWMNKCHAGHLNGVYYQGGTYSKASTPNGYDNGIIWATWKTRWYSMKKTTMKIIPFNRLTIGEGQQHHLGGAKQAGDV
The series is described as follows: Incorporation into human plasma clots in vitro. The series is classed as biochemical. The following applies: for % specific uptake: % retained (with thrombin) - % retained (no thrombin); for % retained (no thrombin): control without thrombin and calcium chloride (non-specific binding); for % retained (with thrombin): human plasma clot, 60 minutes, ca. 20° C. In a few lines: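 Human plasma containing radiolabelled substrate (typically 10 kBq/ml) clotted with thrombin in Tris-saline pH 7.5 with 4 mM CaCl2, 60 min at ca. 20 °C, then stopped with cold EDTA. Clots collected on nitrocellulose filters and washed; incorporation is filter-retained radioactivity fraction minus non-specific binding from thrombin/calcium-free controls.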

Series [2] in a line: Incorporation into clots induced in a rat model (rat inferior vena cava model). Conditions: for % id/g (clot) / Rel. Conc. (cpm/g of clot by dose/g animal): sacrificed after 60 min. The series is classed as in vivo, rat (Male Wistar). In short, it runs like this:
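Male Wistar rats (250–350 g) under 15% urethane anaesthesia, with the vena cava isolated by laparotomy. Compounds given 5 min (fresh clot) or 60 min (aged clot) after clot induction; clot, blood, lung and heart removed 60 min later, weighed and counted. Uptake expressed as cpm/g clot per dose/g animal and as clot-to-background tissue ratio.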

The conditions of series [3]: human, plasma, 2 h.
Procedure: (§1) To a portion of compound (50 μl, 10 MBq/ml) was added an equal volume of plasma (rat or human) or saline. The mixtures were incubated at 37° C. and the stability measured by HPLC (system C) at 0, 30 and 120 minutes. The saline dilution acted as a control.
The conditions of series [4]: rat, plasma, 2 h.
Procedure: as §1
Where [5] appears, read: Aged Clots: injected 60 min post-induction.
The mark [6] stands for this setting: Fresh Clots: injected 5 min post-induction.

Entries after “also recorded” stand apart in the source; their conditions may differ. Where two headings read alike, the source gives them in different places. Bounds are passed on as bounds.

For the substance “Ac-NQEQVSPYTLLKG-Hynic (also: 99mTc complex) [^99mTc-Cmpd 4]”, in series [1], the “% specific uptake” value amounted to 21.0%, the “% retained (no thrombin)” value was determined as 0.1% and the “% retained (with thrombin)” value came out at 22.0%. Also, in series [2] (Aged Clots), the Clot/blood is reported as 8, the Clot/heart stood at 19, the Clot/liver was 19 and the Clot/lung stood at 10. Besides, in series [2] (setting [5]), the “% id/g (clot)” value was 1.2 ± 1.1 % id/g and the “Rel. Conc. (cpm/g of clot by dose/g animal)” value was found to be 4.1 ± 4.0. In series [2] (Fresh Clots), this substance gave a Clot/blood of 6, a Clot/heart of 15, a Clot/liver of 20 and a Clot/lung of 8. In series [2] (setting [6]), the “% id/g (clot)” value is 2.0 ± 0.6 % id/g and the “Rel. Conc. (cpm/g of clot by dose/g animal)” value came out at 6.5 ± 2.0. Besides, the “% intact at 120 mins” value in series [3] is more than 90%. Also, the “% intact at 120 mins” value in series [4] is listed as more than 90%.

On to Ac-NQG-Pn44 [^99mTc-Cmpd 16], for which, in series [1], the “% specific uptake” value was 12.4%, the “% retained (no thrombin)” value was 0.1%, the “% retained (with thrombin)” value is 12.5% and the “in vitro clot uptake (in words)” value is listed as “significant reduction in uptake”. In series [2] (Fresh Clots), the Clot/blood is given as 3, the Clot/heart was 8, the Clot/liver was determined as 0.8 and the Clot/lung came out at 3. In series [2] (setting [6]), the “% id/g (clot)” value was 0.3 ± 0.1 % id/g and the “Rel. Conc. (cpm/g of clot by dose/g animal)” value was found to be 1.0 ± 0.2. Moreover, the “% intact at 120 mins” value in series [3] is recorded as more than 90%. For the same substance, the “% intact at 120 mins” value in series [4] was more than 90%.

As to Ac-NQEQVG-Pn44 [^99mTc-Cmpd 17], in series [1], the “% specific uptake” value worked out at 40.6%, the “% retained (no thrombin)” value was 0.7% and the “% retained (with thrombin)” value is reported as 41.3%. Also, in series [2] (Aged Clots), the Clot/blood came out at 3, the Clot/heart is recorded as 7, the Clot/liver was 3 and the Clot/lung amounted to 5. Further, in series [2] (setting [5]), the “% id/g (clot)” value was 0.8 ± 0.1 % id/g and the “Rel. Conc. (cpm/g of clot by dose/g animal)” value stood at 2.7 ± 0.6. In addition, in series [2] (Fresh Clots), the Clot/blood was found to be 7, the Clot/heart came out at 18, the Clot/liver is on record as 5 and the Clot/lung was determined as 12. Besides, in series [2] (setting [6]), the “% id/g (clot)” value is recorded as 1.2 ± 0.7 % id/g and the “Rel. Conc. (cpm/g of clot by dose/g animal)” value is reported as 3.7 ± 2.3. In series [3], the “% intact at 120 mins” value is more than 90%. Further, the “% intact at 120 mins” value in series [4] was more than 90%.

As to “Ac-GQDPVKG-Pn216 (also: 99mTc complex) [^99mTc-Cmpd 48]”, in series [1], the “% specific uptake” value came out at 10.5%, the “% retained (no thrombin)” value is 0.1%, the “% retained (with thrombin)” value was 10.6% and the “in vitro clot uptake (in words)” value is recorded as “significant reduction in uptake”. In series [2] (Aged Clots), the Clot/blood stood at 1, the Clot/heart is reported as 32, the Clot/liver amounted to 26 and the Clot/lung was found to be 109. In series [2] (setting [5]), the “% id/g (clot)” value came to 0.2 ± 0.04 % id/g and the “Rel. Conc. (cpm/g of clot by dose/g animal)” value amounted to 0.8 ± 0.2. For the same substance, in series [2] (Fresh Clots), the Clot/blood worked out at 0.6, the Clot/heart was found to be 2, the Clot/liver was 3 and the Clot/lung worked out at 0.9. In series [2] (setting [6]), the “% id/g (clot)” value stood at 0.3 ± 0.2 % id/g and the “Rel. Conc. (cpm/g of clot by dose/g animal)” value is 1.0 ± 0.5.

For p-EAQIVG-Pn44 [^99mTc-Cmpd 46], in series [1], the “% specific uptake” value is on record as 6.1%, the “% retained (no thrombin)” value stood at 0.2%, the “% retained (with thrombin)” value is listed as 6.3% and the “in vitro clot uptake (in words)” value is reported as “significant reduction in uptake”. In series [2] (Aged Clots), the Clot/blood worked out at 4, the Clot/heart was 5, the Clot/liver is given as 1 and the Clot/lung is recorded as 3. In addition, in series [2] (setting [5]), the “% id/g (clot)” value turned out to be 0.5 ± 0.2 % id/g and the “Rel. Conc. (cpm/g of clot by dose/g animal)” value is 1.3 ± 0.6. In series [2] (Fresh Clots), this substance came in with a Clot/blood of 5, a Clot/heart of 6, a Clot/liver of 1 and a Clot/lung of 3. In series [2] (setting [6]), the “% id/g (clot)” value was found to be 0.8 ± 0.4 % id/g and the “Rel. Conc. (cpm/g of clot by dose/g animal)” value was 2.0 ± 0.7.

Consider “Ac-NAEAVSPYTLLKG-Pn216 (also: 99mTc complex) [^99mTc-Cmpd 14]”, for which, in series [1], the “% specific uptake” value worked out at 2.8%, the “% retained (no thrombin)” value turned out to be 0.5%, the “% retained (with thrombin)” value came to 3.3% and the “in vitro clot uptake (in words)” value is reported as “significant reduction in uptake; also recorded: large drop in uptake”. In series [2] (Aged Clots), the Clot/blood was determined as 1.4, the Clot/heart worked out at 2, the Clot/liver is given as 0.7 and the Clot/lung is on record as 1.3. Moreover, in series [2] (setting [5]), the “% id/g (clot)” value is listed as 0.6 ± 0.4 % id/g and the “Rel. Conc. (cpm/g of clot by dose/g animal)” value was found to be 1.4 ± 0.8. In series [2] (Fresh Clots), this substance yielded a Clot/blood of 2, a Clot/heart of 3, a Clot/liver of 0.7 and a Clot/lung of 1.5. Besides, in series [2] (setting [6]), the “% id/g (clot)” value stood at 0.5 ± 0.1 % id/g and the “Rel. Conc. (cpm/g of clot by dose/g animal)” value is on record as 1.2 ± 0.2.

Turning to “Ac-NQEQVSPYTLL(D-K)G-Pn216 [^99mTc-Cmpd 28]”, in series [1], the “% specific uptake” value was determined as 41.9%, the “% retained (no thrombin)” value is reported as 0.2% and the “% retained (with thrombin)” value came to 42.1%. In series [2] (Aged Clots), the Clot/blood is 17, the Clot/heart is recorded as 3, the Clot/liver turned out to be 1 and the Clot/lung was found to be 2. For the same substance, in series [2] (setting [5]), the “% id/g (clot)” value was 4.5 ± 1.1 % id/g and the “Rel. Conc. (cpm/g of clot by dose/g animal)” value is 13.1 ± 3.4. Besides, in series [2] (Fresh Clots), the Clot/blood stood at 13, the Clot/heart is listed as 31, the Clot/liver is 35 and the Clot/lung is given as 19. In series [2] (setting [6]), the “% id/g (clot)” value turned out to be 3.5 ± 2.0 % id/g and the “Rel. Conc. (cpm/g of clot by dose/g animal)” value was 9.7 ± 5.0.

Take “Ac-NQQQVSPYTLLKG-Pn216 (also: 99mTc complex) [^99mTc-Cmpd 15]”: in series [1], the “% specific uptake” value is 55.2%, the “% retained (no thrombin)” value turned out to be 0.4% and the “% retained (with thrombin)” value came out at 55.6%. In series [2] (Aged Clots), this substance returned a Clot/blood of 3, a Clot/heart of 1 and a Clot/lung of 0.6. In series [2] (setting [5]), the “% id/g (clot)” value worked out at 3.4 ± 0.6 % id/g and the “Rel. Conc. (cpm/g of clot by dose/g animal)” value came out at 7.6 ± 1.6. In series [2] (Fresh Clots), this substance returned a Clot/blood of 4, a Clot/heart of 12, a Clot/liver of 11 and a Clot/lung of 6. Moreover, in series [2] (setting [6]), the “% id/g (clot)” value stood at 3.6 ± 1.0 % id/g and the “Rel. Conc. (cpm/g of clot by dose/g animal)” value came out at 8.3 ± 2.2.
